The record followed here is patent US20230295131A1, “INHIBITORS OF RHO-ASSOCIATED COILED-COIL KINASE” (Angion Biomedica Corp., priority 2020, published 2023).

Where a name gives a salt, the structure may show the parent alone.

One assay deals with T1, ROCK1 (Homo sapiens, UniProt Q13464).
T1 construct: T7 phage fusion (kinase-tagged phage) or DNA tag for qPCR detection
As to the kind of experiment: ROCK1 kinase binding affinity, DiscoverX KINOMEscan KdELECT. Conditions: 11-point 3-fold dilution. As to the method:
(§1) 1. ROCK1 and ROCK2 kinase assays: The ROCK1 and ROCK2 kinase binding affinities of compounds in this disclosure were determined by DiscoverX's KINOMEscan™ KdELECT technology (https://www.discoverx.com/kinomescan-elect-kinase-screening-and-profiling-services): Kinase-tagged T7 phage strains were prepared in an E. coli host derived from the BL21 strain. E. coli were grown to log-phase and infected with T7 phage and incubated with shaking at 32° C. until lysis. The lysates were centrifuged and filtered to remove cell debris. The remaining kinases were produced in HEK-293 cells and subsequently tagged with DNA for qPCR detection. […] The liganded beads were blocked with excess biotin and washed with blocking buffer (SeaBlock (Pierce), 1% BSA, 0.05% Tween 20, 1 mM DTT) to remove unbound ligand and to reduce nonspecific binding. […] Kds were determined using an 11-point 3-fold compound dilution series with three DMSO control points. […] The compounds were then diluted directly into the assays such that the final concentration of DMSO was 0.9%. All reactions performed in polypropylene 384-well plate. Each was a final volume of 0.02 ml. […] The kinase concentration in the eluates was measured by qPCR.

For a further assay, the target named is T2, ROCK2 (Homo sapiens, UniProt O75116).
T2 construct: T7 phage fusion (kinase-tagged phage) or DNA tag for qPCR detection
T2 sequence (O75116 whole entry, the tested form may be a part): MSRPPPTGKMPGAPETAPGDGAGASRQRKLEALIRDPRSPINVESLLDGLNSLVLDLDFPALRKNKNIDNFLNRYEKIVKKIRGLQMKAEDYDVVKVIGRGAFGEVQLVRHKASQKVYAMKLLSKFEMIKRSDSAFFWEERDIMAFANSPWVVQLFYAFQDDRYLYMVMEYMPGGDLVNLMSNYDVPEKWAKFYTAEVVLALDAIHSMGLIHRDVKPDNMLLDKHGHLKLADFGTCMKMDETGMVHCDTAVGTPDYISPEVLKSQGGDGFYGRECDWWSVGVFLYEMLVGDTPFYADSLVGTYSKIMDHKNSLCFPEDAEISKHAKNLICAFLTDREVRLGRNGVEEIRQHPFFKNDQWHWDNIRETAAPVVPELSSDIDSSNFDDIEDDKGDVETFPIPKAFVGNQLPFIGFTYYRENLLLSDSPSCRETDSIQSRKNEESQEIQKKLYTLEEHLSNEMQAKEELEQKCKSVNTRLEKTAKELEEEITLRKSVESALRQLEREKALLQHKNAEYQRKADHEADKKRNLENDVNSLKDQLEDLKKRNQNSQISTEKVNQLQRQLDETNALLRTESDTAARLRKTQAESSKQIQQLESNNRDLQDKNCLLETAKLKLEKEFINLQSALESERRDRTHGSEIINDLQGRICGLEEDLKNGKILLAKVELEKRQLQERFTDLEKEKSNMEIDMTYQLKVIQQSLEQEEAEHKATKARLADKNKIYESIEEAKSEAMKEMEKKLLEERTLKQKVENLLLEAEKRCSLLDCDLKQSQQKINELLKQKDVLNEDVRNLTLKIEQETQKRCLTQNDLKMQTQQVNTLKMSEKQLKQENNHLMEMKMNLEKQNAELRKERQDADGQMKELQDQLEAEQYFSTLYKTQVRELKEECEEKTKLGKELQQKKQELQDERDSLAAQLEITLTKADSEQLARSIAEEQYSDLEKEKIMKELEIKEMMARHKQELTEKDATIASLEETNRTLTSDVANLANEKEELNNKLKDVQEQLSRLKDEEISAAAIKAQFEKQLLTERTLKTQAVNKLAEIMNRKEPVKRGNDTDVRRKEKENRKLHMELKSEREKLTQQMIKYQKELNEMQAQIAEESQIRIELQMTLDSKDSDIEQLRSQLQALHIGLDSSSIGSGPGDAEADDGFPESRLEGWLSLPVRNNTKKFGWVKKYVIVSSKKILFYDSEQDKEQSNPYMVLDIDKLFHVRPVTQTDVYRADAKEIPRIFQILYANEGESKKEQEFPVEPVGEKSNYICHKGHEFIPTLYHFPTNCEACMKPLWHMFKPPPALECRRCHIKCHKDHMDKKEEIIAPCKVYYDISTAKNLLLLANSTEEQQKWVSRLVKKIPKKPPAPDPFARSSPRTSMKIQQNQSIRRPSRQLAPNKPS
As to the kind of experiment: ROCK2 kinase binding affinity, DiscoverX KINOMEscan KdELECT. Conditions: for Kd: KINOMEscan KdELECT, 11-point 3-fold dilution, read-out: Kd (μM) ROCK2; for ROCK2 Selectivity: selectivity for ROCK2 over ROCK1 from Kd. As to the method:
as §1

T1 sequence (Q13464 whole entry, the tested form may be a part): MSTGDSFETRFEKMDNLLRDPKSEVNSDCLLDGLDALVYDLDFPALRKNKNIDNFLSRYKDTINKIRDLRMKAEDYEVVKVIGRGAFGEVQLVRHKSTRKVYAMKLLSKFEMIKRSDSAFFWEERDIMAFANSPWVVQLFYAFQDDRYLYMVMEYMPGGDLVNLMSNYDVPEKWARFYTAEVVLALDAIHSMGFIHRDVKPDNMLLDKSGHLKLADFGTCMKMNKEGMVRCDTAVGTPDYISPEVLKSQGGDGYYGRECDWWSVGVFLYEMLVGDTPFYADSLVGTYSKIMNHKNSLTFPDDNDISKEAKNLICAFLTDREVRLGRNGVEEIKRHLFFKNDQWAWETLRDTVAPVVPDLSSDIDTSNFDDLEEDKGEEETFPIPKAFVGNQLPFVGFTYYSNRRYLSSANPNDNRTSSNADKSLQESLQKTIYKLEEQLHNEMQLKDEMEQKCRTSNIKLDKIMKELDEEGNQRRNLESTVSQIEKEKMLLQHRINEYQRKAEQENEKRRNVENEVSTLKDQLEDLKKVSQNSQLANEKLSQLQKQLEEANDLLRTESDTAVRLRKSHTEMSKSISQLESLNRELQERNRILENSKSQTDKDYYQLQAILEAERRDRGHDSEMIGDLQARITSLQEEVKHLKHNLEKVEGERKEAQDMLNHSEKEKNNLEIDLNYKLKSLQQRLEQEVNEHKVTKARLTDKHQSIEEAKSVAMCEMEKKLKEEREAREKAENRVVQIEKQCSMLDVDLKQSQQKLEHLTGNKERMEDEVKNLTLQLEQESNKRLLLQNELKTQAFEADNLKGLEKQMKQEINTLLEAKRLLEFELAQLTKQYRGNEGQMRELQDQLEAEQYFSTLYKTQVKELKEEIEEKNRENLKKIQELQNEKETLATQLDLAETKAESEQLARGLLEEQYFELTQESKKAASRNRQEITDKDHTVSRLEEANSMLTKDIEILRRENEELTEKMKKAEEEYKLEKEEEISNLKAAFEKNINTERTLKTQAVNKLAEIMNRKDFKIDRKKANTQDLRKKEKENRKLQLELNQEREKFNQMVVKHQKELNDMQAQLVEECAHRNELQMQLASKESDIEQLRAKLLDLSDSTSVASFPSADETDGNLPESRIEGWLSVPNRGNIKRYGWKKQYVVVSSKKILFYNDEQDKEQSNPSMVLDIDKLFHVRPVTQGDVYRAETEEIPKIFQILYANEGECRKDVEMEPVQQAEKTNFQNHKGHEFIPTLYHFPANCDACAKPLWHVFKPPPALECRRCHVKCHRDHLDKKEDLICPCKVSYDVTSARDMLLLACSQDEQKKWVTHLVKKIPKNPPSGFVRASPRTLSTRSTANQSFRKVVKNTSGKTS

In general, Kd refers to a measure of binding affinity in units of concentration. As to `O=C(CNc1nccc(-c2nccc(C#Cc3ccc4[nH]nc(F)c4c3)n2)n1)N1CCOCC1` [Ex. 77, 2-((4-((3-Fluoro-1H-indazol-5-yl)ethynyl)-[2,4′-bipyrimidin]-2′-yl)amino)-1-morpholinoethanone], on ROCK1, the dissociation constant (Kd) was 10 to 100 µM. Moreover, at ROCK2, the Kd lay in the range of 0.01 to 0.099 µM and the “ROCK2 Selectivity” value is on record as “*** (151 to 500-fold selectivity for ROCK2)”.

Turning to `CC1(CNc2nccc(-c3nccc(C#Cc4ccc5[nH]ncc5c4)n3)n2)CCCO1` (stereo not drawn) [Ex. 53, 4-((1H-Indazol-5-yl)ethynyl)-N-((2-methyltetrahydrofuran-2-yl)methyl)-[2,4′-bipyrimidin]-2′-amine], on ROCK1, the Kd is 1 to 9.9 µM. Further, at ROCK2, the Kd was 0.01 to 0.099 µM and the “ROCK2 Selectivity” value was “** (50 to 150-fold selectivity for ROCK2)”.

On to `C(#Cc1ccnc(-c2ccnc(NCc3ncccn3)n2)n1)c1ccc2[nH]ncc2c1` [Ex. 7, 4-((1H-indazol-5-yl)ethynyl)-N-(pyrimidin-2-ylmethyl)-[2,4′-bipyrimidin]-2′-amine], for which the Kd on ROCK1 lay in the range of 0.1 to 0.99 µM; on ROCK2 it was 0.01 to 0.099 µM. In addition, on ROCK2, the “ROCK2 Selectivity” value is listed as “* (<50-fold selectivity for ROCK2)”.

Compound `O=S1(=O)CC[C@H](Nc2nccc(-c3nccc(C#Cc4ccc5[nH]ncc5c4)n3)n2)C1` [Ex. 83, (S)-3-((4-((1H-Indazol-5-yl)ethynyl)-[2,4′-bipyrimidin]-2′-yl)amino)tetrahydrothiophene 1,1-dioxide] returned a Kd at ROCK1 of 0.1 to 0.99 µM. In addition, at ROCK2, the Kd is less than 0.01 µM and the “ROCK2 Selectivity” value is “*** (151 to 500-fold selectivity for ROCK2)”.

At ROCK1, `CC1(O)CN(C(=O)CNc2nccc(-c3nccc(C#Cc4ccc5[nH]ncc5c4)n3)n2)C1` [Ex. 84, 2-((4-((1H-Indazol-5-yl)ethynyl)-[2,4′-bipyrimidin]-2′-yl)amino)-1-(3-hydroxy-3-methylazetidin-1-yl)ethanone] gave a Kd of 1 to 9.9 µM. Moreover, at ROCK2, the Kd fell in the range of 0.01 to 0.099 µM and the “ROCK2 Selectivity” value is “* (<50-fold selectivity for ROCK2)”.

On to `C(#Cc1ccnc(-c2ccnc(N[C@@H]3CCOC3)n2)n1)c1ccc2[nH]ncc2c1` [Ex. 59, (R)-4-((1H-Indazol-5-yl)ethynyl)-N-(tetrahydrofuran-3-yl)-[2,4′-bipyrimidin]-2′-amine], for which the Kd at ROCK1 was 1 to 9.9 µM. For the same compound, on ROCK2, the Kd was less than 0.01 µM and the “ROCK2 Selectivity” value is recorded as “*** (151 to 500-fold selectivity for ROCK2)”.

Regarding `Cc1cnc(CNc2nccc(-c3nccc(C#Cc4ccc5[nH]ncc5c4)n3)n2)nc1` [Ex. 4, 4-((1H-Indazol-5-yl)ethynyl)-N-((5-methylpyrimidin-2-yl)methyl)-[2,4′-bipyrimidin]-2′-amine], the Kd on ROCK1 lay within 1 to 9.9 µM. On ROCK2, the Kd was 0.1 to 0.99 µM and the “ROCK2 Selectivity” value is on record as “* (<50-fold selectivity for ROCK2)”.

In the case of `C(#Cc1ccnc(-c2ccnc(NC[C@@H]3CCCO3)n2)n1)c1ccc2[nH]ncc2c1` [Ex. 35, (S)-4-((1H-Indazol-5-yl)ethynyl)-N-((tetrahydrofuran-2-yl)methyl)-[2,4′-bipyrimidin]-2′-amine], the Kd on ROCK1 was 0.1 to 0.99 µM; at ROCK2 it was less than 0.01 µM. Further, on ROCK2, the “ROCK2 Selectivity” value is “*** (151 to 500-fold selectivity for ROCK2)”.

As to `COc1ccccc1CNc1nccc(-c2nccc(C#Cc3ccc4[nH]ncc4c3)n2)n1` [Ex. 18, 4-((1H-Indazol-5-yl)ethynyl)-N-(2-methoxybenzyl)-[2,4′-bipyrimidin]-2′-amine], the Kd fell in the range of 1 to 9.9 µM on ROCK1 and 0.01 to 0.099 µM on ROCK2. Besides, at ROCK2, the “ROCK2 Selectivity” value was “** (50 to 150-fold selectivity for ROCK2)”.

In the case of `C(#Cc1ccnc(-c2ccnc(NCc3cc4ccccc4cn3)n2)n1)c1ccc2[nH]ncc2c1` [Ex. 25, 4-((1H-Indazol-5-yl)ethynyl)-N-(isoquinolin-3-ylmethyl)-[2,4′-bipyrimidin]-2′-amine], on ROCK1, the Kd lay in the range of 0.1 to 0.99 µM. For the same compound, on ROCK2, the Kd was 0.01 to 0.099 µM and the “ROCK2 Selectivity” value is given as “* (<50-fold selectivity for ROCK2)”.

In turn, `C(#Cc1ccnc(-c2ccnc(NCC3CCCN3)n2)n1)c1ccc2[nH]ncc2c1` (stereo not drawn) [Ex. 5, 4-((1H-Indazol-5-yl)ethynyl)-N-(pyrrolidin-2-ylmethyl)-[2,4′-bipyrimidin]-2′-amine] registered a Kd on ROCK1 of 0.1 to 0.99 µM. Also, at ROCK2, the dissociation constant (Kd) lay in the range of 0.01 to 0.099 µM and the “ROCK2 Selectivity” value is “* (<50-fold selectivity for ROCK2)”.

`Fc1cccc(CNc2nccc(-c3nccc(C#Cc4ccc5[nH]ncc5c4)n3)n2)c1F` [Ex. 26, 4-((1H-Indazol-5-yl)ethynyl)-N-(2,3-difluorobenzyl)-[2,4′-bipyrimidin]-2′-amine]: the Kd lay within 1 to 9.9 µM on ROCK1 and 0.01 to 0.099 µM on ROCK2. Moreover, the “ROCK2 Selectivity” value at ROCK2 is recorded as “** (50 to 150-fold selectivity for ROCK2)”.

On ROCK1, `Fc1cccc(CNc2nccc(-c3nccc(C#Cc4ccc5[nH]ncc5c4)n3)n2)n1` [Ex. 32, 4-((1H-Indazol-5-yl)ethynyl)-N-((6-fluoropyridin-2-yl)methyl)-[2,4′-bipyrimidin]-2′-amine] showed an equilibrium dissociation constant (Kd) of 1 to 9.9 µM. Besides, at ROCK2, the Kd lay in the range of 0.01 to 0.099 µM and the “ROCK2 Selectivity” value was “** (50 to 150-fold selectivity for ROCK2)”.

`Cc1ccc(CNc2nccc(-c3nccc(C#Cc4ccc5[nH]ncc5c4)n3)n2)nc1` [Ex. 24, 4-((1H-Indazol-5-yl)ethynyl)-N-((5-methylpyridin-2-yl)methyl)-[2,4′-bipyrimidin]-2′-amine] registered a Kd at ROCK1 of 0.1 to 0.99 µM. Also, at ROCK2, the Kd was less than 0.01 µM and the “ROCK2 Selectivity” value was “** (50 to 150-fold selectivity for ROCK2)”.

`O[C@H]1CC[C@@H](Nc2nccc(-c3nccc(C#Cc4ccc5cncn5c4)n3)n2)CC1` [Ex. 96, (1s,4s)-4-((4-(Imidazo[1,5-a]pyridin-6-ylethynyl)-[2,4′-bipyrimidin]-2′-yl)amino)cyclohexanol] returned a Kd at ROCK1 of 10 to 100 µM. Besides, at ROCK2, the Kd was in the range of 0.01 to 0.099 µM and the “ROCK2 Selectivity” value is “** (50 to 150-fold selectivity for ROCK2)”.

At ROCK1, `C(#Cc1ccnc(-c2ccnc(NC[C@H]3CCCO3)n2)n1)c1ccc2[nH]ncc2c1` [Ex. 34, (R)-4-((1H-Indazol-5-yl)ethynyl)-N-((tetrahydrofuran-2-yl)methyl)-[2,4′-bipyrimidin]-2′-amine] yielded a Kd of 0.1 to 0.99 µM. For the same compound, at ROCK2, the equilibrium dissociation constant (Kd) is less than 0.01 µM and the “ROCK2 Selectivity” value is reported as “*** (151 to 500-fold selectivity for ROCK2)”.

With `C(#Cc1ccnc(-c2ccnc(NCc3ccc4c(c3)CNC4)n2)n1)c1ccc2[nH]ncc2c1` [Ex. 20, 4-((1H-Indazol-5-yl)ethynyl)-N-(isoindolin-5-ylmethyl)-[2,4′-bipyrimidin]-2′-amine trifluoroacetate salt], the Kd is 0.1 to 0.99 µM at ROCK1 and 0.01 to 0.099 µM on ROCK2. Further, on ROCK2, the “ROCK2 Selectivity” value was “* (<50-fold selectivity for ROCK2)”.

At ROCK1, `C(#Cc1ccnc(-c2ccnc(NC[C@@H]3CCOC3)n2)n1)c1ccc2[nH]ncc2c1` [Ex. 58, (S)-4-((1H-Indazol-5-yl)ethynyl)-N-((tetrahydrofuran-3-yl)methyl)-[2,4′-bipyrimidin]-2′-amine] gave an equilibrium dissociation constant (Kd) of 1 to 9.9 µM. At ROCK2, the Kd is less than 0.01 µM and the “ROCK2 Selectivity” value is “**** (>500-fold selectivity for ROCK2)”.

Take `Fc1ncccc1CNc1nccc(-c2nccc(C#Cc3cc(F)c4[nH]ncc4c3)n2)n1` [Ex. 42, 4-((7-Fluoro-1H-indazol-5-yl)ethynyl)-N-((2-fluoropyridin-3-yl)methyl)-[2,4′-bipyrimidin]-2′-amine]: the Kd on ROCK1 was 1 to 9.9 µM; at ROCK2, 0.01 to 0.099 µM. Also, at ROCK2, the “ROCK2 Selectivity” value is on record as “** (50 to 150-fold selectivity for ROCK2)”.
